# Source: patent US9676714B2, “Sulfonylindole derivatives and method for preparing the same” (Daewoong Pharmaceutical Co., Ltd., priority 2013, dated 2017)
# Structures can show the parent of a compound that is named as a salt.
# Molecular target: T1, proton pump (H+/K+-ATPase) (Sus scrofa, UniProt P19156)
# T1 construct: Gastric vesicles were prepared from hog stomach via centrifugal separation; from tissue; host or cells: hog stomach (gastric vesicles, method of Rabon et al. 1988)
# Test: Measurement of inhibitory effects on proton pump (H+/K+-ATPase) activities
# Format: biochemical
# Conditions: hog gastric vesicles, K+-specific H+/K+-ATPase activity, Tris-HCl buffer pH 7.4, 37° C. for 40 minutes, malachite green Pi readout
# Method in brief: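 Hog gastric vesicles in 60 mmol/l Tris-HCl pH 7.4 with 0.5% DMSO were treated with compounds at room temperature; reaction was started with 10 μl of 10 mmol/l ATP stock. Released Pi was read at 570 nm, K+-specific activity taken as the ±K+ difference. IC50 from 4-parameter logistic fit.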
# T1 sequence (P19156 whole entry): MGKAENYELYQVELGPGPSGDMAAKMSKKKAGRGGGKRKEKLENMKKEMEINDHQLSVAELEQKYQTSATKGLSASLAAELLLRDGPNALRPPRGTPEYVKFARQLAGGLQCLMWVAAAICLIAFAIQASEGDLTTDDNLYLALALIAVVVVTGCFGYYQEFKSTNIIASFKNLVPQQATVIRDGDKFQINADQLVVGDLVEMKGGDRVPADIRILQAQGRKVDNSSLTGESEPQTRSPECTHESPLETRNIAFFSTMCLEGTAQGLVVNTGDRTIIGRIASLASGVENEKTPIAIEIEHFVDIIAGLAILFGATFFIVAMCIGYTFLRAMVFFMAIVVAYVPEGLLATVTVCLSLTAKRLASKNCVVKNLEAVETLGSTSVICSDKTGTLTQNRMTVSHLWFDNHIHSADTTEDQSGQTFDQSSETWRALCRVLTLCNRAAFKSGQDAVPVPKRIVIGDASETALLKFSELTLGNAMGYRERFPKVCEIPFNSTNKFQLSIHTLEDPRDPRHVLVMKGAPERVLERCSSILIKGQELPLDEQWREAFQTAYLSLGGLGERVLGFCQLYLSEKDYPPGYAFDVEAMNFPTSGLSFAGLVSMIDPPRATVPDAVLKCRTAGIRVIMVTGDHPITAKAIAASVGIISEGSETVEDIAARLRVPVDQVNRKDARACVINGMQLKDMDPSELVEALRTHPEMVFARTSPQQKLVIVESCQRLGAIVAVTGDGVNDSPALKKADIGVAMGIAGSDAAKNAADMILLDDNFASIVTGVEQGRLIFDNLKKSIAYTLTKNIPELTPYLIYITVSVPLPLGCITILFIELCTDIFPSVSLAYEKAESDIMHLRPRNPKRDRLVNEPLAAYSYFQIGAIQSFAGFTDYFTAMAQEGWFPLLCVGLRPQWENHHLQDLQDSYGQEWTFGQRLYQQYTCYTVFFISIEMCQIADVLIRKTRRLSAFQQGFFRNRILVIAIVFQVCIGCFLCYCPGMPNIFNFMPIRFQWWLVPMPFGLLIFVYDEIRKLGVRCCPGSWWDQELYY
# T1 sequence (P18434 whole entry partner): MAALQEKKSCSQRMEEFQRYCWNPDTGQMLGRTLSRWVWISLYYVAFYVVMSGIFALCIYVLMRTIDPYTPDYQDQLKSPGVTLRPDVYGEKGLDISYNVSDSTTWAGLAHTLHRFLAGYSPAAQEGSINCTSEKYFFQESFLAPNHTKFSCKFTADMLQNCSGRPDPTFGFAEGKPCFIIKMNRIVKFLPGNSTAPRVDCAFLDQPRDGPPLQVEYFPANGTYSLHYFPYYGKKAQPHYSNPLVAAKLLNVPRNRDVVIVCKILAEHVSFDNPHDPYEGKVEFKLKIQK
row,Compound,IC50 [nM]
1,"CNCc1cn(S(=O)(=O)c2cccnc2)c2cc(Cc3ccc(OC(F)(F)F)cc3C)ccc12 [Example 278, N-methyl-1-(6-(2-methyl-4-(trifluoromethoxy)benzyl)-1-(pyridin-3-ylsulfonyl)-1H-indol-3-yl)methanamine hydrochloride]",1970
2,"CNCc1cn(S(=O)(=O)c2cccnc2)c2cc(Cc3ccc(OC(F)(F)F)cc3F)ccc12 [Example 279, 1-(6-(2-fluoro-4-(trifluoromethoxy)benzyl)-1-(pyridin-3-ylsulfonyl)-1H-indol-3-yl)-N-methylmethanamine hydrochloride]",2190
3,"CNCc1cn(S(=O)(=O)c2cccnc2)c2cc(Cc3ccc(OC(F)(F)F)cc3OC)ccc12 [Example 281, 1-(6-(2-methoxy-4-(trifluoromethoxy)benzyl)-1-(pyridin-3-ylsulfonyl)-1H-indol-3-yl)-N-methylmethanamine hydrochloride]",1870
4,"CNCc1cn(S(=O)(=O)c2cccnc2)c2cc(Cc3cccnc3OC)ccc12 [Example 282, 1-(6-((2-methoxypyridin-3-yl)methyl)-1-(pyridin-3-ylsulfonyl)-1H-indol-3-yl)-N-methylmethanamine hydrochloride]",2920
5,"CNCc1cn(S(=O)(=O)c2cccnc2)c2cc(Cc3ccc(C)nc3F)ccc12 [Example 283, 1-(6-((2-fluoro-6-methylpyridin-3-yl)methyl)-1-(pyridin-3-ylsulfonyl)-1H-indol-3-yl)-N-methylmethanamine hydrochloride]",2630
6,"CNCc1cn(S(=O)(=O)c2cccc(F)c2)c2cc(Cc3ccc(C)c(F)c3F)ccc12 [Example 287, 1-(6-(2,3-difluoro-4-methylbenzyl)-1-((3-fluorophenyl)sulfonyl)-1H-indol-3-yl)-N-methylmethanamine]",1670
7,"CNCc1cn(S(=O)(=O)c2cccc(C(F)(F)F)c2)c2cc(Cc3ccc(C)c(F)c3F)ccc12 [Example 288, 1-(6-(2,3-difluoro-4-methylbenzyl)-1-((3-(trifluoromethyl)phenyl)sulfonyl)-1H-indol-3-yl)-N-methylmethanamine]",1450

# The next molecules have a lower IC50 than those just listed; values first:
row,IC50 [nM],Compound
1,860,"CNCc1cn(S(=O)(=O)c2cccnc2)c2cc(Cc3ccc(OC(F)(F)F)cc3Cl)ccc12 [Example 280, 1-(6-(2-chloro-4-(trifluoromethoxy)benzyl)-1-(pyridin-3-ylsulfonyl)-1H-indol-3-yl)-N-methylmethanamine hydrochloride]"
2,1010,"CNCc1cn(S(=O)(=O)c2cccnc2)c2cc(Cc3ccc(C)nc3Cl)ccc12 [Example 284, 1-(6-((2-chloro-6-methylpyridin-3-yl)methyl)-1-(pyridin-3-ylsulfonyl)-1H-indol-3-yl)-N-methylmethanamine hydrochloride]"
3,650,"CNCc1cn(S(=O)(=O)c2cccnc2)c2cc(Cc3ccc(Cl)nc3Cl)ccc12 [Example 285, 1-(6-((2,6-dichloropyridin-3-yl)methyl)-1-(pyridin-3-ylsulfonyl)-1H-indol-3-yl)-N-methylmethanamine hydrochloride]"
4,780,"CNCc1cn(S(=O)(=O)c2cccc(OC)c2)c2cc(Cc3ccc(C)c(F)c3F)ccc12 [Example 289, 1-(6-(2,3-difluoro-4-methylbenzyl)-1-((3-methoxyphenyl)sulfonyl)-1H-indol-3-yl)-N-methylmethanamine]"
5,930,"CNCc1cn(S(=O)(=O)c2cccc(OC(F)F)c2)c2cc(Cc3ccc(C)c(F)c3F)ccc12 [Example 290, 1-(6-(2,3-difluoro-4-methylbenzyl)-1-((3-(difluoromethoxy)phenyl)sulfonyl)-1H-indol-3-yl)-N-methylmethanamine]"
6,660,"CNCc1cn(S(=O)(=O)c2cccnc2)c2cc(Cc3ccc(OC)nc3Cl)ccc12 [Example 291, 1-(6-((2-chloro-6-methoxypyridin-3-yl)methyl)-1-(pyridin-3-ylsulfonyl)-1H-indol-3-yl)-N-methylmethanamine hydrochloride]"
